Source: patent US11136300B2, “Crystalline forms of 3-substituted 1,2,4-oxadiazole” (Aurigene Discovery Technologies Limited, priority 2017, dated 2021)
In brackets after ≈: the same amount, converted by molar mass.

Experiments:
Type in all cases: physicochemical
[1] = Storage of Form 1 at ambient conditions
Protocol: Formula (I) Form 1 exists at ambient conditions upon short term storage (i.e., less than 8 d). A mixture of formula (I) Forms 1 and 2 (16 mg) was weighed into a glass vial, and tetrahydrofuran (THF, 0.5 mL) was added. The resulting slurry was stirred at room temperature for about 4 d. The wet solids were analyzed by XRPD in transmission mode and confirmed to be crystalline formula (I) Form 1, as shown by XRPD analysis (FIG. 1).

[2] = Equilibrium solubility of formula (I) Form 2 in water; conditions: for Final Form: solids checked by XRPD after 6 hrs; for solubility at 6 h: thermodynamic from solid, equilibrated 6 hrs, supernatant by HPLC
Protocol: Equilibrium solubility of formula (I) Form 2 was measured in the water at 20° C. and 30° C. All samples were equilibrated at temperature for 6 hrs, and the solubility of supernatant was measured by HPLC, while the solids were checked by XRPD. (See Table 9.)

[3] = Solid stability of crystalline Form 2 on storage; conditions: 7-8 days
Protocol: Samples of formula (I) crystalline Form 2 were stored as solids at 25° C./60% Relative Humidity (RH), 30° C./˜56%, and 40° C./75% RH for 7-8 days. The samples were prepared in duplicate with an offset of 2 weeks. Each replicate was stored in a different container.

time for which the form exists on short term storage [1]	form change during the solubility testing ([2]; 20° C. and 30° C., XRPD (FIG. 6))	Final Form ([2]; 20° C.)	Final Form ([2]; 30° C.)	solubility at 6 h ([2]; 20° C.)	solubility at 6 h ([2]; 30° C.)	solid form and particle morphology after storage ([3]; 25° C./60% RH)	solid form and particle morphology after storage ([3]; 30° C./~56% RH)	solid form and particle morphology after storage ([3]; 40° C./75% RH)	SMILES
less than 8 d	–	–	–	–	–	–	–	–	CC(O)[C@H](NC(=O)N[C@@H](CC(N)=O)c1nc([C@@H](N)CO)no1)C(=O)O (stereo partly drawn) [Form 1]
–	No form change was observed	Form 2	Form 2	148 mg/mL (≈ 410 mM)	166 mg/mL (≈ 459 mM)	remained unchanged	remained unchanged	remained unchanged	CC(O)[C@H](NC(=O)N[C@@H](CC(N)=O)c1nc([C@@H](N)CO)no1)C(=O)O (stereo partly drawn) [Form 2]
